Non-standard residues stand in square brackets, D forms with d. Residues, ends and D or L forms follow the SMILES beside them. *: point of attachment. dPhe(4-Cl) = N[C@H](Cc1ccc(Cl)cc1)C(=O)O; Ahp = NCCCCCCC(=O)O; Bn = c1ccc(C*)cc1

The record followed here is patent publication US20090081197A1 (Palatin Technologies, Inc., priority 2007, published 2009).

For experiment [1], the target named is T1, MC1-R (Mus musculus, UniProt Q01727).
T1 construct: B-16 mouse melanoma cells (containing MC1-R); endogenous in cells
As to the kind of experiment: Competitive inhibition assay using [I^125]-NDP-α-MSH, B-16 mouse melanoma cell membranes. The conditions noted are these: for inhibition at 1 µM: 1 μM test compound, read-out: Inhibition at 1 μM (NDP-α-MSH) In Normal System, MC1-R; for Ki: read-out: Ki (nM) (NDP-α-MSH) In Normal System, MC1-R. Format: binding. In a few lines:
(§1)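 Tracer was 0.4 nM for MC3-R and MC5-R, 0.2 nM for MC4-R and 0.1 nM for MC1-R. Bound radioactivity was gamma-counted after filtration; values are triplicate means, with results below 0% reported as 0%.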

Experiment [2] is described as follows: Penile erection induction in male rats. The class given is in vivo. The method in brief:
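Male Sprague-Dawley rats (200-250 g), groups of 4-8, dosed IV or ICV at various doses and observed individually for penile erections. Only statistically relevant increases over vehicle-control mean PEs count as induction; IV responses below 1.0 PEs/rat treated as equivocal, some retested ICV.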

Experiment [3] deals with T2, MC4-R (Homo sapiens, UniProt P32245). As to the kind of experiment: cAMP agonist stimulation, high receptor density system (10 ng/mL doxycycline). The conditions noted are these: for Efficacy/Intrinsic Activity: 10 ng/mL doxycycline, high receptor density hMC4-R system, NDP-α-MSH maximal cAMP = 1.0.
Experiment [4] concerns the target T2, MC4-R. As to the kind of experiment: cAMP agonist stimulation, low receptor density system (0.1 ng/mL doxycycline). The conditions noted are these: for Efficacy/Intrinsic Activity: 0.1 ng/mL doxycycline, low receptor density hMC4-R system, NDP-α-MSH maximal cAMP = 1.0.
The target of experiment [5] is T2, MC4-R. Kind of experiment: cAMP functional activity assay in HEK-293 cells, normal system. The note with it: for intrinsic activity at MC4-R in a normal system: NDP-α-MSH = 1.0; for functional status at MC4-R in cAMP assay: normal system, 1 μM concentration where stated. The class given is cell-based. Details: expressed in transfected cells; host or cells: HEK-293. (In general: Changes in cAMP serve as a functional read-out for many G protein-coupled receptors.)

Experiment [6] deals with MC3-R (Homo sapiens, UniProt P41968). As to the kind of experiment: Competitive inhibition assay using [I^125]-NDP-α-MSH, hMC3-R membranes. The class given is binding. The note with it: for inhibition at 1 µM: 1 μM test compound, read-out: Inhibition at 1 μM (NDP-α-MSH) In Normal System, MC3-R. Further details: expressed in transfected cells. The method in brief:
as §1

The target of experiment [7] is T2, MC4-R. As to the kind of experiment: Competitive inhibition assay using [I^125]-NDP-α-MSH, hMC4-R membranes. The class given is binding. Further details: host or cells: TREx-293 (HEK-293 stably expressing Tet repressor). The note with it: for inhibition at 1 µM: 1 μM test compound, read-out: Inhibition at 1 μM (NDP-α-MSH) In Normal System, MC4-R; for Ki: read-out: Ki (nM) (NDP-α-MSH) In Normal System, MC4-R. In a few lines:
as §1

For experiment [8], the target named is MC5-R (Homo sapiens, UniProt P33032). Kind of experiment: Competitive inhibition assay using [I^125]-NDP-α-MSH, hMC5-R membranes. The class given is binding. Further details: expressed in transfected cells. The note with it: for inhibition at 1 µM: 1 μM test compound, read-out: Inhibition at 1 μM (NDP-α-MSH) In Normal System, MC5-R. In a few lines:
as §1

The nature of experiment [9]: IP (and IN) food intake, mice. The class given is in vivo. The note with it: mouse; for inhibition in vivo at 3 mg/kg / inhibition in vivo at 10 mg/kg / maximal decrease in food intake: 4 hours; for inhibition in vivo at 3 mg/kg / inhibition in vivo at 10 mg/kg: read-out: maximal decrease in food intake; for decrease in food intake: 20 hours. The procedure: IV and IP food intake and body weight change. Change in food intake and body weight was evaluated for selected compounds. Male Sprague-Dawley rats or male C57BL/6 mice were utilized. Animals were individually housed in conventional plexiglass hanging cages and maintained on a controlled 12 hour on/off light cycle. Water and powdered (LabDiet, 5P00 Prolab RMH 3000) or pelleted (Harlan Teklad 2018 18% Protein Rodent Diet) food was provided ad libitum. For 1 week before treatment, 24-hour food intake and body weight change was recorded to assess a baseline for the group during vehicle treatment. The rats were dosed IV with vehicle or selected compounds (0.5-3 mg/kg, and in some cases up to 10 mg/Kg) or dosed intraperitoneally (IP) with vehicle or selected compounds (0.5-10 mg/kg, and in some cases up to 50 mg/kg). Mice were dosed IP. […] The changes in body weight and food intake for the 48 hour and 72 hour periods after dosing were also measured to determined reversal of changes in body weight and food intake effects back to baseline levels.

The nature of experiment [10]: ICV food intake and body weight change. Format: in vivo. The conditions noted are these: rat, 1 nmol, 24 hours. Here is the method: ICV food intake and body weight change. Change in food intake and body weight was evaluated for selected compounds. Rats with indwelling intracerebroventricular cannulas (ICV rats) were obtained from Hilltop Lab Animals, Inc. (Scottdale, Pa.). Animals were individually housed in conventional plexiglass hanging cages and maintained on a controlled 12 hour on/off light cycle. Water and powdered (LabDiet, 5P00 Prolab RMH 3000) or pelleted (Harlan Teklad 2018 18% Protein Rodent Diet) food was provided ad libitum. For 1 week before treatment, 24-hour food intake and body weight change was recorded to assess a baseline for the group during vehicle treatment. The rats were dosed ICV with vehicle or selected compounds (1-3 nmol). The changes in body weight and food intake for the 24 hour period after dosing were determined. The changes in body weight and food intake for the 48 hour and 72 hour periods after dosing were also measured to determine reversal of changes in body weight and food intake effects back to baseline levels.

MC5-R, sequence (P33032 whole entry): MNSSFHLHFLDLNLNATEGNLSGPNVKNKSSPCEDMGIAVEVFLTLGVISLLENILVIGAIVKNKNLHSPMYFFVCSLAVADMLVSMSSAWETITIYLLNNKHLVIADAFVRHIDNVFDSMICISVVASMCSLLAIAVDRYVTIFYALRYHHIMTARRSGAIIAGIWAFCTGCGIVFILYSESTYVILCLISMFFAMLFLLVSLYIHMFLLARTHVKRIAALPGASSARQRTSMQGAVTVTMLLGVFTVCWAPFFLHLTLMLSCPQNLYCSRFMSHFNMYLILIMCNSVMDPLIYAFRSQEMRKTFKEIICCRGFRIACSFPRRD
T1 sequence (Q01727 whole entry): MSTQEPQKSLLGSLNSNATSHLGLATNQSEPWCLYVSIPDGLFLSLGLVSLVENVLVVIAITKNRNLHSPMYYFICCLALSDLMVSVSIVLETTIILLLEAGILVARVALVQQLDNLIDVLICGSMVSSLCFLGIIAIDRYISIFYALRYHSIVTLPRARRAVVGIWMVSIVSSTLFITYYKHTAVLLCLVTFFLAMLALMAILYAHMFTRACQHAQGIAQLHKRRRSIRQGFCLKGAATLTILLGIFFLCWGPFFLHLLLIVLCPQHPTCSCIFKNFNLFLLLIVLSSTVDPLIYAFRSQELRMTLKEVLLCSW
MC3-R, sequence (P41968 whole entry): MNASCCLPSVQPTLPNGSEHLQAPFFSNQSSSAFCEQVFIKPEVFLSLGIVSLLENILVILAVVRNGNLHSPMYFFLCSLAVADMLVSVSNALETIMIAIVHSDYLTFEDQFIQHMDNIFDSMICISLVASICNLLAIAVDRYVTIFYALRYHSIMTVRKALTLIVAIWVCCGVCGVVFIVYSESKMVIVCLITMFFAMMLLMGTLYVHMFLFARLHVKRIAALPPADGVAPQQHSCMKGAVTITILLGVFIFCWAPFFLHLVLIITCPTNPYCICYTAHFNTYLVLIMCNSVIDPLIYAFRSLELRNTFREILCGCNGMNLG
T2 sequence (P32245 whole entry): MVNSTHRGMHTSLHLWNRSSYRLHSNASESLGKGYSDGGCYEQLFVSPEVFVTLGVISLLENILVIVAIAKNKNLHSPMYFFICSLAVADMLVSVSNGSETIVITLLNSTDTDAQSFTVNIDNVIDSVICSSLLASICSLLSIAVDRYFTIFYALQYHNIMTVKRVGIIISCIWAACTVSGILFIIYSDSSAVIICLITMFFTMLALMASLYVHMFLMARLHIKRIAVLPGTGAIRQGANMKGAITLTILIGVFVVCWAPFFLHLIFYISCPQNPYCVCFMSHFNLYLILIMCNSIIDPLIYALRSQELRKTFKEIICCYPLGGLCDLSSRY

In the case of `Cc1cc(Cl)ccc1C[C@@H](N)C(=O)N1C[C@@H](C)N(CCc2ccc3ccccc3c2)C[C@@H]1CCCNC(=N)N` [Example 26, N-{3-[1-[2(R)-Amino-3-(2-methyl, 4-chloro-phenyl)-propionyl]-5(R)-methyl-4-(2-naphthalen-2-yl-ethyl)-piperazin-2(S)-yl]-propyl}-guanidine], the inhibition (in general, how much of the control response was suppressed) at 1 µM is 6% in experiment [1], 74% in experiment [6], 100% in experiment [7] and 77% in experiment [8]. In addition, the “Penile Erection IV” value in experiment [2] (rat, IV) is “No”. The penile erection response entry in experiment [2] (rat, IV, 1 and 3 mg/kg) is reported as “no penile erection”. The midpoint of the response in experiment [3], the EC50, lay at 31 nM. The “Efficacy/Intrinsic Activity” value in experiment [3] is reported as 0.78; in [4] it was “None”. The “intrinsic activity at MC4-R in a normal system” value (“intrinsic activity at MC4-R” for short) in experiment [5] (normal receptor density system) amounted to 0.3. The “functional status at MC4-R in cAMP assay” value in experiment [5] was “partial agonist (intrinsic activity between 0.1 (10%) and 0.7 (70%) is classified as a partial agonist)”. Also, the inhibition in vivo at 3 mg/kg in experiment [9] (IP, 3 mg/kg) worked out at 44%. Moreover, the inhibition in vivo at 10 mg/kg in experiment [9] (IP, 10 mg/kg) was found to be 86%.

For `Cc1ccc(C[C@@H](N)C(=O)N2C[C@@H](C)N(CCc3ccc4ccccc4c3)C[C@@H]2CCCNC(=N)N)c(C)c1` [Example 27, N-{3-[1-[2(R)-Amino-3-(2,4-dimethyl-phenyl)-propionyl]-5(R)-methyl-4-(2-naphthalen-2-yl-ethyl)-piperazin-2(S)-yl]-propyl}-guanidine], the inhibition at 1 µM turned out to be 9% in experiment [1], 62% in [6], 100% in experiment [7] and 59% in [8]. The Ki – broadly, the dissociation constant of the complex between target and ligand, obtained from inhibition or displacement – in experiment [1] came out at 1230 nM. For the same compound, the “Penile Erection ICV” value in experiment [2] (rat, ICV) is recorded as “No”. For the same compound, the penile erection response entry is given as “no penile erection response” in [2] (rat, ICV, 1 and 3 nmole); “no penile erections” in experiment [2] (rat, IV, 1 and 3 mg/kg). Also, the “Penile Erection IV” value in experiment [2] (rat, IV) is given as “No”. In addition, in experiment [3], the response was half-maximal at 129 nM (EC50). Besides, the figures for the “Efficacy/Intrinsic Activity” value in experiment [3] and in experiment [4] were 0.61 and “None”, respectively. Moreover, the “intrinsic activity at MC4-R” value in experiment [5] (normal receptor density system) came to 0.2. In addition, the “functional status at MC4-R in cAMP assay” value in experiment [5] was “partial agonist (intrinsic activity between 0.1 (10%) and 0.7 (70%) is classified as a partial agonist)”. In addition, in [9] (IP, 3 mg/kg), the inhibition in vivo at 3 mg/kg turned out to be 47%. Besides, the inhibition in vivo at 10 mg/kg in [9] (IP, 10 mg/kg) was 88%.

On to `C[C@@H]1CN(C(=O)[C@H](N)Cc2ccc(Cl)cc2)[C@@H](CCCNC(=N)N)CN1CCc1ccc2ccccc2c1` [Example 28, N-{3-[1-[2(R)-Amino-3-(4-chloro-phenyl)-propionyl]-5(R)-methyl-4-(2-naphthalen-2-yl-ethyl)-piperazin-2(S)-yl]-propyl}-guanidine], for which the inhibition at 1 µM was 64% in experiment [1], 70% in experiment [6], 97% in experiment [7] and 61% in experiment [8]. In addition, the “Penile Erection IV” value in experiment [2] (rat, IV) is “No”. Further, the penile erection response entry in [2] (rat, IV, 0.003 to 3 mg/kg) was “no penile erections”. For the same compound, the EC50 (as a rule, the concentration giving half of the maximal effect) was determined as 24 nM in experiment [3] and 106 nM in experiment [4]. The “Efficacy/Intrinsic Activity” value in [3] is listed as 0.75; in [4], 0.29. Further, the “intrinsic activity at MC4-R” value in experiment [5] (normal receptor density system) turned out to be 0.8. Also, in experiment [5], the “functional status at MC4-R in cAMP assay” value was “agonist (intrinsic activity of 0.7 (70%) or higher is classified as an agonist)”. In experiment [9] (IP, 3 mg/kg), the “maximal decrease in food intake” value is on record as 46%.

Regarding `Cc1ccc(C[C@@H](N)C(=O)N2C[C@@H](C)N(C(=O)Cc3ccc4ccccc4c3)C[C@@H]2CCCNC(=N)N)c(C)c1` [Example 29], the inhibition at 1 µM was found to be 0% in experiment [1], 25% in [6], 85% in experiment [7] and 7% in experiment [8]. For the same compound, the Ki worked out at 431 nM in experiment [1]; 526 nM in experiment [6] (read-out: Ki (nM) (NDP-α-MSH) In Normal System, MC3-R); 6 nM in experiment [7]; 1540 nM in experiment [8] (read-out: Ki (nM) (NDP-α-MSH) In Normal System, MC5-R). Further, in experiment [2] (IV, 0.0003 to 0.03 mg/kg), the “maximum mean PEs per rat” value is listed as 0.5. Moreover, the “Penile Erection IV” value in [2] (rat, IV) is recorded as “Yes*”. In experiment [2] (rat, IV, 0.0003 to 0.03 mg/kg), the animals responding result is recorded as “no more than 50%”. Also, the EC50 in experiment [3] came to 34 nM; in [4], 45 nM; in [5] (normal receptor density system), 46 nM. The “Efficacy/Intrinsic Activity” value is given as 0.77 in experiment [3] and 0.25 in [4]. For the same compound, the “intrinsic activity at MC4-R” value in experiment [5] (normal receptor density system) came out at 0.8. For the same compound, the “functional status at MC4-R in cAMP assay” value in [5] is recorded as “agonist (intrinsic activity of 0.7 (70%) or higher is classified as an agonist)”. In addition, the “decrease in food intake” value in experiment [9] (IP, 3 mg/kg) is given as 3%; in experiment [9] (IP, 10 mg/kg), 26%.

As to `N=C(N)NCCC[C@H](NC(=O)[C@@H](Cc1ccc(Cl)cc1)NC(=O)[C@H](COCc1ccccc1)NC(=O)CCCCCCN)C(=O)N[C@@H](Cc1c[nH]c2ccccc12)C(N)=O` [Example 1, NH2—(CH2)6—C(═O)-Ser(Bzl)-(D)Phe(4-Cl)-Arg-Trp-NH2] (H-[Ahp]S(Bn)[dPhe(4-Cl)]RW-NH2), the inhibition at 1 µM turned out to be 33% in [1], 94% in experiment [6], 99% in [7] and 73% in [8]. The “Penile Erection ICV” value in [2] (rat, ICV) is on record as “No”. For the same compound, in [2] (rat, ICV, 0.01 to 5 nmol), the penile erection response entry is recorded as “no penile erection response”. The compound also yielded an EC50 in experiment [3] of 21 nM. Besides, the “Efficacy/Intrinsic Activity” value in experiment [3] is listed as 0.97; in [4] it was “None”. Also, in experiment [10], the “decrease in food intake” value is reported as 21%. Also, in experiment [5] (normal receptor density system), the “intrinsic activity at MC4-R” value stood at 0.32. In experiment [5], the “functional status at MC4-R in cAMP assay” value is “partial agonist (intrinsic activity between 0.1 (10%) and 0.7 (70%) is classified as a partial agonist)”. Moreover, in experiment [7], the Ki is 3 nM. For the same compound, the “maximal decrease in food intake” value in experiment [9] (IN, 10 μg/kg) came to 16%; in experiment [9] (IP, 3 mg/kg) it was 26%.
